# Experiments:
# Human μ-opioid (MOP) = molecular target: T1, Human μ-opioid (MOP) (Homo sapiens, UniProt P35372); test: Radioligand binding, human μ-opioid (MOP) membranes, FlashPlate, [3H]-Naloxone; conditions: compound at 10 μM; [3H]-Naloxone
# T1 construct: purchased Perkin Elmer Biosignal
# Outline: (§1)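 Cloned human receptor membranes were coated onto FlashPlate wells and incubated with radioligand and compound (added from a 0.5 mM DMSO daughter plate) for 1 hour at room temperature in the dark. Scintillation counting gave percent inhibition, with DMSO defining total and reference ligand defining non-specific binding.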
# Human Melanocortin (MC3) = molecular target: T2, Human Melanocortin (MC3) (Homo sapiens, UniProt P41968); test: Radioligand binding, human melanocortin MC3 membranes, FlashPlate, [125I]-NDP-αMSH; conditions: compound at 10 μM; [125I]-NDP-αMSH
# T2 construct: purchased Perkin Elmer Biosignal
# T2 sequence (P41968 whole entry): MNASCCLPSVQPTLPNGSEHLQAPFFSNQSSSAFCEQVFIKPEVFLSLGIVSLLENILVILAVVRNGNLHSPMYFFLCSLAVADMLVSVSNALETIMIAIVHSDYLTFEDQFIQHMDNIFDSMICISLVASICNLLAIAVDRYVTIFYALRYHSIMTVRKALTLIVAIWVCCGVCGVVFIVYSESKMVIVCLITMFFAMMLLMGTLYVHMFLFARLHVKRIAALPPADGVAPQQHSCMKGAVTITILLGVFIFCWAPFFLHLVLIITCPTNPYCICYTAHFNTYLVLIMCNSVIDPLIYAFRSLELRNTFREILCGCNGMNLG
# Outline: as §1
# Human opioid (ORL1) = molecular target: T3, Human opioid (ORL1) (Homo sapiens, UniProt P41146); test: Radioligand binding, human opioid ORL1 membranes, FlashPlate, [125I]-Nociceptin; conditions: compound at 10 μM; [125I]-Nociceptin
# T3 construct: purchased Perkin Elmer Biosignal
# T3 sequence (P41146 whole entry): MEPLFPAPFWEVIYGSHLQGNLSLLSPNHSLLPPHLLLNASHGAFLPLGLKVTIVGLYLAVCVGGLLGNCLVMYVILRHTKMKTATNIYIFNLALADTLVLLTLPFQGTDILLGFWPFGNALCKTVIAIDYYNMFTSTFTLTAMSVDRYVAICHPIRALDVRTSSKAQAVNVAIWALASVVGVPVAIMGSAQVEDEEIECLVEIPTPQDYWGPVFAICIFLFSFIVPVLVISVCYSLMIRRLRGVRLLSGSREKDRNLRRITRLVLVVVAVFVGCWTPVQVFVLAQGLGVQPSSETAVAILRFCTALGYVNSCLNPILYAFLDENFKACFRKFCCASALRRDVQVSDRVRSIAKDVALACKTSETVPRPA
# Outline: as §1
# Human κ-Opioid (KOP) = molecular target: T4, Human κ-Opioid (KOP) (Homo sapiens, UniProt P41145); test: Radioligand binding, human κ-opioid (KOP) membranes, filtration, [3H]-Diprenorphine; conditions: compound at 10 μM; [3H]-Diprenorphine
# T4 construct: purchased Perkin Elmer Biosignal
# T4 sequence (P41145 whole entry): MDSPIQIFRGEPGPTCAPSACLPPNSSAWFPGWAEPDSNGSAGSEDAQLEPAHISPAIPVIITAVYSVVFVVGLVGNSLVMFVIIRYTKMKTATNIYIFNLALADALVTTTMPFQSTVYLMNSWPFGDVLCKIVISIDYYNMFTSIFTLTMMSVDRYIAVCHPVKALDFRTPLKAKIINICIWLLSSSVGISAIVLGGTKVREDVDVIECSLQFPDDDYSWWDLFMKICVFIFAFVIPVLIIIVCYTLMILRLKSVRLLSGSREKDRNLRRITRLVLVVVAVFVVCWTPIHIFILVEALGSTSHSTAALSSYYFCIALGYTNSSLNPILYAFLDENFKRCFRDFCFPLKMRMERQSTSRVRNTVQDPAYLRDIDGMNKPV
# Outline: (§2)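 Filtration binding on cloned human receptor membranes (1 Unit/well), [125I]-Substance P for NK1 and [3H]-Diprenorphine for KOP, 1 h at room temperature. Filters PEI-presoaked, washed with cold 50 mM Tris-HCl pH 7.4, counted by scintillation; percent inhibition calculated, reference ligand defining non-specific binding.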
# Human melanocortin (MC5) = molecular target: T5, Human melanocortin (MC5) (Homo sapiens, UniProt P33032); test: Radioligand binding, human melanocortin MC5 membranes, FlashPlate, [125I]-NDP-αMSH; conditions: compound at 10 μM; [125I]-NDP-αMSH
# T5 construct: purchased Perkin Elmer Biosignal
# T5 sequence (P33032 whole entry): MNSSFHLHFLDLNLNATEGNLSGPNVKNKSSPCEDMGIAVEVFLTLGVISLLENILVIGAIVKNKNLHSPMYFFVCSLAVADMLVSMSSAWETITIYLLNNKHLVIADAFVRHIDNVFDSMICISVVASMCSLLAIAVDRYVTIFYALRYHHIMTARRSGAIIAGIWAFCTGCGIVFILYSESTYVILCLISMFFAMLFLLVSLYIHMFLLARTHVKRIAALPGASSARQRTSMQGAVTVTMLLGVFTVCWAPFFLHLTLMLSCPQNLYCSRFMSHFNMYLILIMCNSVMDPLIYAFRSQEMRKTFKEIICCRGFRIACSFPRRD
# Outline: as §1
# Mouse urotensin (mUR2) = molecular target: T6, Mouse urotensin (mUR2) (Mus musculus, UniProt Q8VIH9); test: Radioligand binding, mouse urotensin mUR2 membranes, FlashPlate, [125I]-Urotensin II; conditions: compound at 10 μM; [125I]-Urotensin II
# T6 construct: purchased Perkin Elmer Biosignal
# T6 sequence (Q8VIH9 1-385): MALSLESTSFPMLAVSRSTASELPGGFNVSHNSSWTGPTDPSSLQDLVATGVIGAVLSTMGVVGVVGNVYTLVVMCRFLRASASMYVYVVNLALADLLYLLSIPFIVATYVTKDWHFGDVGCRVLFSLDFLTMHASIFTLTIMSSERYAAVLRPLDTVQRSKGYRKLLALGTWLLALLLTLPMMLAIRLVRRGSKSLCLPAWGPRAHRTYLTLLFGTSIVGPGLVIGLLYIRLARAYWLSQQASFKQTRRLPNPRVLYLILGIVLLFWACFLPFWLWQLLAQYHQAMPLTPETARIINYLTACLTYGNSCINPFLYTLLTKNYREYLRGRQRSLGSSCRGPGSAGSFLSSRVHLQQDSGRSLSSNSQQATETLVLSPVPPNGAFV
# Outline: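 Cloned mouse urotensin (mUR2) receptor membranes from Perkin Elmer Biosignal were immobilized in FlashPlate microplates using a proprietary coating. Each well got 19.5 μl buffer, then 0.5 μl of DMSO, reference ligand, or compound. Adding 5 μl of [125I]-Urotensin II, diluted to 5× final concentration in binding buffer, started binding. Plates were sealed with TopSeal-A and incubated 1 hour at room temperature in the dark. Wells were counted for 30 seconds each on a TopCount after a 60-second delay, and percentage inhibition was calculated.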
# Human Melanocortin (MC4) = molecular target: T7, Human Melanocortin (MC4) (Homo sapiens, UniProt P32245); test: Radioligand binding, human melanocortin MC4 membranes, FlashPlate, [125I]-NDP-αMSH; conditions: compound at 10 μM; [125I]-NDP-αMSH
# T7 construct: purchased Perkin Elmer Biosignal
# T7 sequence (P32245 whole entry): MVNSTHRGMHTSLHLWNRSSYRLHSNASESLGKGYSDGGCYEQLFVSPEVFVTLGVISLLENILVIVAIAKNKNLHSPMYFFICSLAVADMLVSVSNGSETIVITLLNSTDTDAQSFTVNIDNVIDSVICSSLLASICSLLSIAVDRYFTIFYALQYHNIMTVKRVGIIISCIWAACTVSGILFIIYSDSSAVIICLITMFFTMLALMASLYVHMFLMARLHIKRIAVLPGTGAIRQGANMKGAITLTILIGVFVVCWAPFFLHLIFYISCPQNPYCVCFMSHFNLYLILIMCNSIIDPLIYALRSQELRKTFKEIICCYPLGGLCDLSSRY
# Outline: as §1
# Human δ-opioid (DOP) = molecular target: T8, Human δ-opioid (DOP) (Homo sapiens, UniProt P41143); test: Radioligand binding, human δ-opioid (DOP) membranes, FlashPlate, [3H]-Bremazocine; conditions: compound at 10 μM; [3H]-Bremazocine
# T8 construct: purchased Perkin Elmer Biosignal
# T8 sequence (P41143 whole entry): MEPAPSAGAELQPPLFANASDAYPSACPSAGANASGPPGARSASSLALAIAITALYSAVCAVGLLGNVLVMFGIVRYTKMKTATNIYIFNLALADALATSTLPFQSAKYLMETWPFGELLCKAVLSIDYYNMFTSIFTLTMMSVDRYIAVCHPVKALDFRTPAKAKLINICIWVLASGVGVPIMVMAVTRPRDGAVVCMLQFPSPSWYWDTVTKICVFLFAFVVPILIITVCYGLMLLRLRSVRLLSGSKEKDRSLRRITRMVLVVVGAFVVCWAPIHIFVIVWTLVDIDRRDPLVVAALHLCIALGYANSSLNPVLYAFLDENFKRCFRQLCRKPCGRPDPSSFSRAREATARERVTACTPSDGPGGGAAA
# Outline: as §1
# [1] = molecular target: T9, Human melanin-concentrating hormone (MCH1) (Homo sapiens, UniProt Q99705); test: Radioligand binding, human melanin-concentrating hormone MCH1 membranes, FlashPlate, [125I]-S36057; conditions: compound at 10 μM; [125I]-S36057
# T9 construct: purchased Perkin Elmer Biosignal
# T9 sequence (Q99705 whole entry): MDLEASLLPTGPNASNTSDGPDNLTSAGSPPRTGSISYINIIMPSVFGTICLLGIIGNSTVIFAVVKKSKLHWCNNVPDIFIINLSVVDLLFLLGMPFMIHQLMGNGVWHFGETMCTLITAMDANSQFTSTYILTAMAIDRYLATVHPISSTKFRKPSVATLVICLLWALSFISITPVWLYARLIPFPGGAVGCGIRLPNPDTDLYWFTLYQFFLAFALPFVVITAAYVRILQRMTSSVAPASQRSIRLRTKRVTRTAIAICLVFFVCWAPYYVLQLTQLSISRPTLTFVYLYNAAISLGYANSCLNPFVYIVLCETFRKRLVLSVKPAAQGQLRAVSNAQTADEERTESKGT
# Outline: as §1
# Human neurokinin (NK1) = molecular target: T10, Human neurokinin (NK1) (Homo sapiens, UniProt P25103); test: Radioligand binding, human neurokinin NK1 membranes, filtration, [125I]-Substance P; conditions: compound at 10 μM; [125I]-Substance P
# T10 construct: purchased Perkin Elmer Biosignal
# T10 sequence (P25103 whole entry): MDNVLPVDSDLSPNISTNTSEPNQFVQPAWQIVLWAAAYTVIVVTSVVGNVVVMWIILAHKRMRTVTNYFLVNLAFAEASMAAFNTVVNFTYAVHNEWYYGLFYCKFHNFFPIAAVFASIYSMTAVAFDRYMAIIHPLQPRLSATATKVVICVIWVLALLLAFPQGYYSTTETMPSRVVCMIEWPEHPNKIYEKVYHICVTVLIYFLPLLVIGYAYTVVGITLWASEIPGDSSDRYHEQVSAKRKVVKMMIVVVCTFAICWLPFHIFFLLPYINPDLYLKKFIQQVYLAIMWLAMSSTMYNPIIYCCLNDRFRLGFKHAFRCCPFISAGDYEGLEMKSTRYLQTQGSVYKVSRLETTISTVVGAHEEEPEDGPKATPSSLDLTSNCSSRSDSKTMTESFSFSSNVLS
# Outline: as §2
# [2] = molecular target: T11, Human neuropeptide Y (NPY-Y1) (Homo sapiens, UniProt P25929); test: Radioligand binding, human neuropeptide Y NPY-Y1 membranes, FlashPlate, [125I]-PYY; conditions: compound at 10 μM; [125I]-PYY
# T11 construct: purchased Perkin Elmer Biosignal
# T11 sequence (P25929 1-384): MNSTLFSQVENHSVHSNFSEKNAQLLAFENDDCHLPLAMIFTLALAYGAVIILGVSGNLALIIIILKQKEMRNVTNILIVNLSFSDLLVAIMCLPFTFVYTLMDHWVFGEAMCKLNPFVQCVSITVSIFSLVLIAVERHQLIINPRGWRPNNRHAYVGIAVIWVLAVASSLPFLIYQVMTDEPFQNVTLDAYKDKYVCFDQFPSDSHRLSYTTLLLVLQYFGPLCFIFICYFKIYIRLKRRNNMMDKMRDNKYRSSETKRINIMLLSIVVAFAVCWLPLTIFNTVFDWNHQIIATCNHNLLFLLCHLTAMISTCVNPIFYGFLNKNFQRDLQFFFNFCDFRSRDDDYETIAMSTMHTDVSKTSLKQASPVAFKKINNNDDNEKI
# Outline: as §1
# T1 sequence (P35372 whole entry): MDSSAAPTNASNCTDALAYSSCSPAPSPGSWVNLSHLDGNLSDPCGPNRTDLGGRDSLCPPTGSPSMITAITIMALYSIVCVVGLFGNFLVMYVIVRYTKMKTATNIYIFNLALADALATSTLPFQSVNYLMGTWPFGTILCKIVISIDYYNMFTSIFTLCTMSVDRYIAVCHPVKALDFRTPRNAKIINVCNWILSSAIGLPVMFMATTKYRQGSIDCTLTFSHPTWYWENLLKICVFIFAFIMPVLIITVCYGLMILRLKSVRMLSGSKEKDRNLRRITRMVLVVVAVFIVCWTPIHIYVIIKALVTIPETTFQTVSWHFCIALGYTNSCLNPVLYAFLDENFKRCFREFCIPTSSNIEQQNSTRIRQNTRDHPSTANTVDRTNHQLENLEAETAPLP
Structure (SMILES),"A7 radioligand binding, percentage inhibition (Human μ-opioid (MOP))","A3 radioligand binding, percentage inhibition (Human Melanocortin (MC3))","A10 radioligand binding, percentage inhibition (Human opioid (ORL1))","A2 radioligand binding, percentage inhibition (Human κ-Opioid (KOP))","A5 radioligand binding, percentage inhibition (Human melanocortin (MC5))","A11 radioligand binding, percentage inhibition (Mouse urotensin (mUR2))","A4 radioligand binding, percentage inhibition (Human Melanocortin (MC4))","A1 radioligand binding, percentage inhibition (Human δ-opioid (DOP))","A6 radioligand binding, percentage inhibition [1]","A8 radioligand binding, percentage inhibition (Human neurokinin (NK1))","A9 radioligand binding, percentage inhibition [2]"
CO[C@H]1[C@H](O)[C@@H](COCc2ccccc2)OC(OCc2ccc(Cl)cc2)[C@@H]1NC(=O)CCNC(=N)N (stereo partly drawn) [compound 102],− (“−” indicates less than 50% inhibition at 10 μM),− (“−” indicates less than 50% inhibition at 10 μM),− (“−” indicates less than 50% inhibition at 10 μM),− (“−” indicates less than 50% inhibition at 10 μM),+ (“+” indicates greater than 50% inhibition at 10 μM),− (“−” indicates less than 50% inhibition at 10 μM),− (“−” indicates less than 50% inhibition at 10 μM),− (“−” indicates less than 50% inhibition at 10 μM),− (“−” indicates less than 50% inhibition at 10 μM),− (“−” indicates less than 50% inhibition at 10 μM),− (“−” indicates less than 50% inhibition at 10 μM)
CO[C@H]1[C@H](O)[C@@H](COCc2ccccc2)OC(OCc2ccc(Cl)cc2)[C@@H]1NC(=O)CCCN (stereo partly drawn) [compound 103],− (“−” indicates less than 50% inhibition at 10 μM),− (“−” indicates less than 50% inhibition at 10 μM),− (“−” indicates less than 50% inhibition at 10 μM),− (“−” indicates less than 50% inhibition at 10 μM),− (“−” indicates less than 50% inhibition at 10 μM),− (“−” indicates less than 50% inhibition at 10 μM),− (“−” indicates less than 50% inhibition at 10 μM),− (“−” indicates less than 50% inhibition at 10 μM),− (“−” indicates less than 50% inhibition at 10 μM),+ (“+” indicates greater than 50% inhibition at 10 μM),− (“−” indicates less than 50% inhibition at 10 μM)
CO[C@H]1[C@H](O)[C@@H](COCc2ccccc2)OC(OCc2ccc(Cl)cc2)[C@@H]1NC(=O)CCCNC(=N)N (stereo partly drawn) [compound 104],+ (“+” indicates greater than 50% inhibition at 10 μM),− (“−” indicates less than 50% inhibition at 10 μM),− (“−” indicates less than 50% inhibition at 10 μM),− (“−” indicates less than 50% inhibition at 10 μM),+ (“+” indicates greater than 50% inhibition at 10 μM),− (“−” indicates less than 50% inhibition at 10 μM),+ (“+” indicates greater than 50% inhibition at 10 μM),− (“−” indicates less than 50% inhibition at 10 μM),− (“−” indicates less than 50% inhibition at 10 μM),+ (“+” indicates greater than 50% inhibition at 10 μM),− (“−” indicates less than 50% inhibition at 10 μM)
